Experimental data reported in US4745124A, “Orally effective anti-hypertensive agents” (priority 1983, dated 1988).
Like-named read-outs stand apart in the source and are kept apart here. No end group written: not given here. *: point of attachment. Bz = O=C(c1ccccc1)*

Tests used:
[1] = biological target: T1, angiotensin converting enzyme (human urinary ACE) (Homo sapiens, UniProt P12821); experiment: ACE activity assay, I50 (Example 216A); type: biochemical; settings: Benzoyl-GlyHisLeu 1×10^-4 M, Hepes pH 8.0, 37° C, in vitro
T1 construct: ACE purified from human urine; from tissue; host or cells: human urine (ultrafiltration and Sephacryl S-200, first eluting peak; prepared as in Ryan et al., Tissue and Cell 10, 555 (1978))
T1 sequence (P12821 30-1232 limits assumed): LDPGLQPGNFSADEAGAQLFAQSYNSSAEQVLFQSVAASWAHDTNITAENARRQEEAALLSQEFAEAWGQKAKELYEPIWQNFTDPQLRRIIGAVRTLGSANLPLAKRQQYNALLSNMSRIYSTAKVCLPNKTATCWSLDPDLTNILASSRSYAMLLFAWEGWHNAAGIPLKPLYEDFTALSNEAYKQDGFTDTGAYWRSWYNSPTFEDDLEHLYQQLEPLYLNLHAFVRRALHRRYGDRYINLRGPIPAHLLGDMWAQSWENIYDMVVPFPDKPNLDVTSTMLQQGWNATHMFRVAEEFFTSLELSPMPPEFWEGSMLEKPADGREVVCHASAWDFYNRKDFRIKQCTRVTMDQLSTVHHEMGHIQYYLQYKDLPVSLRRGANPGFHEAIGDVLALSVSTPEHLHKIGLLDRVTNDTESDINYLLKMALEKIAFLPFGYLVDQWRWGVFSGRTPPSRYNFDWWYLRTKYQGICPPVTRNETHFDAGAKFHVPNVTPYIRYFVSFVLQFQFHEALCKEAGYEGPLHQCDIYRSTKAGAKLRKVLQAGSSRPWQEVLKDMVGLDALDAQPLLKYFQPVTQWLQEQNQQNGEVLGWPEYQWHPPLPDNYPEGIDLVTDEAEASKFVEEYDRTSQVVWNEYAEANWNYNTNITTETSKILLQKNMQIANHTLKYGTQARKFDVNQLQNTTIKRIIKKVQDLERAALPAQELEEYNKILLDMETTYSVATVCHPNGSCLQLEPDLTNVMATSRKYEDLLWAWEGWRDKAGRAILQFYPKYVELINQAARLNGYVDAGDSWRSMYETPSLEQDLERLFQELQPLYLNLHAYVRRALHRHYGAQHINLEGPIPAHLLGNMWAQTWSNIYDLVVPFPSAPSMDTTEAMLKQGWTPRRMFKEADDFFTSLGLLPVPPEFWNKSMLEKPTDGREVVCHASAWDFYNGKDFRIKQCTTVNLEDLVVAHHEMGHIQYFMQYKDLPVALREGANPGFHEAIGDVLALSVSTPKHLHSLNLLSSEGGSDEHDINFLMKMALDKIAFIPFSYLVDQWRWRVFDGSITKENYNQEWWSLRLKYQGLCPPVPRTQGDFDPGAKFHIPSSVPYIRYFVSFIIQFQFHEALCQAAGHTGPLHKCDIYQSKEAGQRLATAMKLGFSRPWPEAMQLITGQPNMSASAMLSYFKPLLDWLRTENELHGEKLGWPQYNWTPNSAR

[2] = system: pressor effects of angiotensin I; experiment: oral effectiveness: blood pressure response to angiotensin I in anesthetized rats; type: in vivo, rat; settings: oral 20 μmol/kg
Method in brief: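 Fasted rats under pentobarbital anesthesia (50-60 mg/kg i.p.), ventilated, with carotid arterial pressure recorded; i.v. angiotensin I (80 ng, 160 ng or 400 ng/kg) or angiotensin II (80 ng) challenges repeated at timed intervals after oral gavage of compound (2-20 mg/kg, 10 mg, 17 or 23 μmol/kg) in aqueous NaHCO3.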

[3] = system: pressor effects of angiotensin I; experiment: intravenous effectiveness: blood pressure response to angiotensin I in anesthetized rats; type: in vivo, rat; settings: recovery of one half of lost responsiveness to angiotensin I 400 ng/kg
Description: Anesthetized rats were prepared as described in Example 228. After the responsiveness of a given rat to angiotensin I was established, the named compound at 2 μmol/kg, in a volume of 15 μl of 0.01N sodium bicarbonate, was injected via a femoral vein. At timed intervals, the effects of angiotensin I, 400 ng/kg, on mean arterial blood pressure were tested. Results are shown below:
Anesthetized rats were prepared as described in Example 231. After the responsiveness of a given rat to angiotensin I was established, the named compound, at 2 μmol/kg, in a volume of 15 μl of 0.01N sodium bicarbonate, was injected via a femoral vein. At timed intervals, the effects of angiotensin I, 400 ng/kg, on mean arterial blood pressure were tested. Results are shown below:
Anesthetized rats were prepared as described in Example 239. The animals were administered the named compound via a femoral vein in 15 μl of 0.01N sodium bicarbonate, after the control response to 400 ng/kg of angiotensin I was measured. […] The time required for recovery of one half of the lost responsiveness to angiotensin I, following injection of the named compound, was designated t1/2. […] Results are shown for two dose levels:
Anesthetized rats were prepared as described in Example 242. The named compound was administered intravenously via a femoral vein, at the stated dose, in 15 μl of 0.01N sodium bicarbonate. The response to intravenous administration was a rapid decrease in responsiveness to Angtiotensin I, 400 ng/kg, followed by a gradual recovery to the pretreatment level of responsiveness. The time required for recovery of one half the lost responsiveness to angiotensin I, following injection of the named compound, is designated t1/2. […] Results are shown for the three dose levels:
The intravenous effectiveness of the named compound was examined by following the procedure described in Example 244 except that 1 μmole/kg of the drug was given intravenously. The results are shown below:
The intravenous effectiveness of the named compound was examined by following the procedure described in Example 246 except that 1 μmole/Kg of the drug was given intravenously.

[4] = human urinary ACE, read-out: I50

Compound: C[C@H](CSC(=O)[C@H](Cc1ccccc1)NC(=O)c1ccccc1)C(=O)N1CCC[C@H]1C(=O)O [Example 196, N-[3-(benzoyl-L-phenylalanylthio)-2-D-methyl-propanoyl]-L-proline]
- IC50 [1, 4]: 0.016 µM

Compound: C[C@H](CSC(=O)[C@@H](Cc1ccccc1)NC(=O)c1ccccc1)C(=O)N1CCC[C@H]1C(=O)O [Example 197, N-[3-(benzoyl-D-phenylalanylthio)-2-D-methyl-propanoyl]-L-proline]
- IC50 [1, 4]: 0.009 µM

Compound: Bz-Phe-Cys-Pro
- IC50 [1, 4]: 0.6 µM

Compound: γ Glu--Cys--Pro
- IC50 [1, 4]: 11 µM

Compound: Cys--Pro
- IC50 [1, 4]: 11 µM

Compound: O=C(O)[C@@H]1CCCN1 [L-proline]
- IC50 [1, 4]: 1000 µM

Compound: O=C(NC(Cc1ccccc1)C(=O)SCCC(=O)N1CCC[C@H]1C(=O)O)c1ccccc1 (stereo partly drawn) [(III), 3-benzoylphenylalanylthio-propanoyl-L-proline]
- IC50 [1, 4]: 0.7 µM

Compound: N[C@@H](CS)C(=O)O [L-cysteine]
- IC50 ([1]; I50, human urinary ACE): 200 µM

Compound: Bz-Phe-Ala-Pro
- IC50 [1, 4]: 0.1 µM

Compound: C[C@H](CSC(=O)[C@H](Cc1ccccc1)NC(=O)[C@H](CCCCNC(=O)OC(C)(C)C)NC(=O)C1CCCC1)C(=O)N1CCC[C@H]1C(=O)O [N-alpha-[3-(N-alpha-cyclopentylcarbonyl-N-epsilon-tert-butyloxycarbonyl-L-lysyl-L-phenylalanylthio)-2-D-methylpropanoyl]-L-proline]
- IC50 [1, 4]: 0.025 µM

Compound: Bz-Gly-Cys-Pro
- IC50 [1, 4]: 0.5 µM

Compound: C[C@H](CSC(=O)[C@H](Cc1c[nH]c2ccccc12)NC(=O)c1ccccc1)C(=O)N1CCC[C@H]1C(=O)O [N-alpha-[3-(N-alpha-benzoyl-L-tryptophylthio)-2-D-methylpropanoyl]-1-proline]
- Blood Pressure Response to 400 ng/kg of Angiotensin I ([2]; 3 min, Ex. 242): 92 % of Control
- Blood Pressure Response to 400 ng/kg of Angiotensin I ([2]; 7 min, Ex. 242): 64 % of Control
- Blood Pressure Response to 400 ng/kg of Angiotensin I ([2]; 21 min, Ex. 242): 32 % of Control
- Blood Pressure Response to 400 ng/kg of Angiotensin I ([2]; 26 min, Ex. 242): 40 % of Control
- Blood Pressure Response to 400 ng/kg of Angiotensin I ([2]; 32 min, Ex. 242): 40 % of Control
- Blood Pressure Response to 400 ng/kg of Angiotensin I ([2]; 38 min, Ex. 242): 20 % of Control
- Blood Pressure Response to 400 ng/kg of Angiotensin I ([2]; 50 min, Ex. 242): 8 % of Control
- Blood Pressure Response to 400 ng/kg of Angiotensin I ([2]; 56 min, Ex. 242): 8 % of Control
- Blood Pressure Response to 400 ng/kg of Angiotensin I ([2]; 70 min, Ex. 242): 8 % of Control
- Blood Pressure Response to 400 ng/kg of Angiotensin I ([2]; 79 min, Ex. 242): 20 % of Control
- Blood Pressure Response to 400 ng/kg of Angiotensin I ([2]; 87 min, Ex. 242): 12 % of Control
- Blood Pressure Response to 400 ng/kg of Angiotensin I ([2]; 104 min, Ex. 242): 12 % of Control
- Blood Pressure Response to 400 ng/kg of Angiotensin I ([2]; 114 min, Ex. 242): 20 % of Control
- Blood Pressure Response to 400 ng/kg of Angiotensin I ([2]; 124 min, Ex. 242): 40 % of Control
- Blood Pressure Response to 400 ng/kg of Angiotensin I ([2]; 136 min, Ex. 242): 40 % of Control
- Blood Pressure Response to 400 ng/kg of Angiotensin I ([2]; 148 min, Ex. 242): 36 % of Control
- Blood Pressure Response to 400 ng/kg of Angiotensin I ([2]; 173 min, Ex. 242): 48 % of Control
- Blood Pressure Response to 400 ng/kg of Angiotensin I ([2]; 186 min, Ex. 242): 48 % of Control
- Blood Pressure Response to 400 ng/kg of Angiotensin I ([2]; 199 min, Ex. 242): 68 % of Control
- Blood Pressure Response to 400 ng/kg of Angiotensin I ([2]; 212 min, Ex. 242): 64 % of Control
- Blood Pressure Response to 400 ng/kg of Angiotensin I ([2]; 226 min, Ex. 242): 64 % of Control
- Blood Pressure Response to 400 ng/kg of Angiotensin I ([2]; 242 min, Ex. 242): 80 % of Control
- Blood Pressure Response to 400 ng/kg of Angiotensin I ([2]; 260 min, Ex. 242): 80 % of Control
- Blood Pressure Response to 400 ng/kg of Angiotensin I ([2]; 291 min, Ex. 242): 84 % of Control
- t1/2 ([3]; i.v. 0.193 μmol/kg): 11 min
- t1/2 ([3]; i.v. 0.58 μmol/kg): 11 min
- t1/2 ([3]; i.v. 1.93 μmol/kg): 15 min

Compound: acetyl-Cys--Pro
- IC50 [1, 4]: 5 µM

Compound: C[C@H](CSC(=O)CNC(=O)c1ccccc1)C(=O)N1CCC[C@H]1C(=O)O [N-alpha-[3-(N-alpha-benzoylglycylthio)-2-D-methylpropanoyl]-L-proline]
- Blood Pressure Response to 400 ng/kg of Angiotensin I ([2]; 1 min, Ex. 239): 95 % of Control
- Blood Pressure Response to 400 ng/kg of Angiotensin I ([2]; 6 min, Ex. 239): 95 % of Control
- Blood Pressure Response to 400 ng/kg of Angiotensin I ([2]; 11 min, Ex. 239): 95 % of Control
- Blood Pressure Response to 400 ng/kg of Angiotensin I ([2]; 22 min, Ex. 239): 92 % of Control
- Blood Pressure Response to 400 ng/kg of Angiotensin I ([2]; 28 min, Ex. 239): 68 % of Control
- Blood Pressure Response to 400 ng/kg of Angiotensin I ([2]; 33 min, Ex. 239): 61 % of Control
- Blood Pressure Response to 400 ng/kg of Angiotensin I ([2]; 39 min, Ex. 239): 58 % of Control
- Blood Pressure Response to 400 ng/kg of Angiotensin I ([2]; 45 min, Ex. 239): 47 % of Control
- Blood Pressure Response to 400 ng/kg of Angiotensin I ([2]; 60 min, Ex. 239): 47 % of Control
- Blood Pressure Response to 400 ng/kg of Angiotensin I ([2]; 67 min, Ex. 239): 45 % of Control
- Blood Pressure Response to 400 ng/kg of Angiotensin I ([2]; 74 min, Ex. 239): 47 % of Control
- Blood Pressure Response to 400 ng/kg of Angiotensin I ([2]; 82 min, Ex. 239): 47 % of Control
- Blood Pressure Response to 400 ng/kg of Angiotensin I ([2]; 92 min, Ex. 239): 47 % of Control
- Blood Pressure Response to 400 ng/kg of Angiotensin I ([2]; 137 min, Ex. 239): 55 % of Control
- Blood Pressure Response to 400 ng/kg of Angiotensin I ([2]; 142 min, Ex. 239): 55 % of Control
- Blood Pressure Response to 400 ng/kg of Angiotensin I ([2]; 152 min, Ex. 239): 47 % of Control
- Blood Pressure Response to 400 ng/kg of Angiotensin I ([2]; 185 min, Ex. 239): 63 % of Control
- Blood Pressure Response to 400 ng/kg of Angiotensin I ([2]; 207 min, Ex. 239): 79 % of Control
- Blood Pressure Response to 400 ng/kg of Angiotensin I ([2]; 230 min, Ex. 239): 74 % of Control
- t1/2 ([3]; i.v. 0.23 μmol/kg): 26 min
- t1/2 ([3]; i.v. 0.7 μmol/kg): 36 min

Compound: N[C@@H](CCC(=O)N[C@@H](CS)C(=O)NCC(=O)O)C(=O)O [γ Glu--Cys--Gly (glutathione), γ Glu--Cys--Gly]
- IC50 [1, 4]: 40 µM

Compound: Phe--Ala--Pro
- IC50 [1, 4]: 0.2 µM

Compound: O=C(N[C@@H](Cc1ccccc1)C(=O)O)c1ccccc1 [benzoyl-Phe]
- IC50 [1, 4]: 400 µM

Compound: < Glu--Cys--Pro
- IC50 [1, 4]: 4 µM
